We go through 17 compounds from patent US20230365620A1, “CYCLIN-DEPENDENT KINASE INHIBITORS AND METHODS OF USE” (DANA-FARBER CANCER INSTITUTE, INC., priority 2018, published 2023).

Structures are written as SMILES.

Assay [1] has as its target T1, CDK8 (Homo sapiens, UniProt P49336). Description: LANTHASCREEN Eu Kinase Binding Assay (competitive kinase binding, Tracer displacement). On the set-up: purchased INVITROGEN
Target sequence in this assay (P49336 whole entry): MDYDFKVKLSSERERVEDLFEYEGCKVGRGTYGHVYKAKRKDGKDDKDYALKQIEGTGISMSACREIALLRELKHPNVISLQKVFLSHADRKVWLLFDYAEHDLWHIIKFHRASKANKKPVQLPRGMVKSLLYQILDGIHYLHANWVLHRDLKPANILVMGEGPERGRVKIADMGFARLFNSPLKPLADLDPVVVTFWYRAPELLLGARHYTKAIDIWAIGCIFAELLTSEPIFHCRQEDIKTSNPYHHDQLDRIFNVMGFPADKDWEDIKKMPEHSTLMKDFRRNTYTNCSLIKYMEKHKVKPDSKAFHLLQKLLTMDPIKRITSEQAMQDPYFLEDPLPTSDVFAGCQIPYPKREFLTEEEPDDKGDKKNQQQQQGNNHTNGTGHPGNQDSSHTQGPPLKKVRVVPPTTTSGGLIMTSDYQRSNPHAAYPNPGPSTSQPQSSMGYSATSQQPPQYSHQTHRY
Target sequence in this assay (P24863 whole entry partner): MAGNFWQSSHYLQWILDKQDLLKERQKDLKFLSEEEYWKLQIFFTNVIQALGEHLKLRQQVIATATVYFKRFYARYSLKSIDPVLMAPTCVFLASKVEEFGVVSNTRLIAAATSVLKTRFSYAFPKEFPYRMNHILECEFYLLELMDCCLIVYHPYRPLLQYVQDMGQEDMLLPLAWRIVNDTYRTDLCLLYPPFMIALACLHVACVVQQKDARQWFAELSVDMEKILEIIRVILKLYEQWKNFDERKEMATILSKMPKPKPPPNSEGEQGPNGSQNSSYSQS
The conditions noted are these: displacing the Tracer from binding to the target kinase; read-out: Enzyme IC50. As for the experimental part:
The biological activities of the compounds of the present application can be assessed through a variety of methods known in the art. […] The changes in the signal produced by the reporting ligand when the compound is present relative when the compound is absent are recorded, which are calculated to provide the IC50 of the compound. Compounds of the present application were tested in a competitive kinase binding assay by using commercially available assay system. For example, LANTHASCREEN© Eu Kinase Binding Assay (INVITROGEN™) was used to measure the IC50 of the compounds of the present application in displacing the Tracer from binding to the target kinase, by following the assay protocol from INVITROGEN™.

Assay [2] concerns the target T1, CDK8. The assay is described as follows: CDK8 IC50 stated for DCA. Set-up: purchased INVITROGEN
Format: biochemical.
Target sequence in this assay (P49336 whole entry): as the sequence (P49336 whole entry) above
Target sequence in this assay (P24863 whole entry partner): as the sequence (P24863 whole entry partner) above

The test system of assay [3] is phosphorylation of S727-STAT1, a known CDK8 substrate, in HepG2 cells. Description: Western blot of pS727-STAT1 in IFNγ-treated HepG2 cells. Format: cell-based. As to conditions: 18 h with IFNγ, Compound 33 at 0.5, 1 or 5 μM, DCA at 0.1 or 1 μM. As for the experimental part: FIG. 1 is a Western blot illustrating inhibition of phosphorylation of 5727-STAT1, a known CDK8 substrate, to form pS727-STAT1. pS727-STAT1 and total STAT1 were from HepG2 cells independently treated for 18 h with interferon gamma (IFNγ) and 0.5 μM, 1 μM, or 5 μM Compound 33, or with IFNγ and 0.1 μM or 1 μM dehydrocortistatin A (“DCA”).

Assay [4] concerns the target T2, NEK1 (Homo sapiens, UniProt Q96PY6).
T2 sequence (Q96PY6 1-1258): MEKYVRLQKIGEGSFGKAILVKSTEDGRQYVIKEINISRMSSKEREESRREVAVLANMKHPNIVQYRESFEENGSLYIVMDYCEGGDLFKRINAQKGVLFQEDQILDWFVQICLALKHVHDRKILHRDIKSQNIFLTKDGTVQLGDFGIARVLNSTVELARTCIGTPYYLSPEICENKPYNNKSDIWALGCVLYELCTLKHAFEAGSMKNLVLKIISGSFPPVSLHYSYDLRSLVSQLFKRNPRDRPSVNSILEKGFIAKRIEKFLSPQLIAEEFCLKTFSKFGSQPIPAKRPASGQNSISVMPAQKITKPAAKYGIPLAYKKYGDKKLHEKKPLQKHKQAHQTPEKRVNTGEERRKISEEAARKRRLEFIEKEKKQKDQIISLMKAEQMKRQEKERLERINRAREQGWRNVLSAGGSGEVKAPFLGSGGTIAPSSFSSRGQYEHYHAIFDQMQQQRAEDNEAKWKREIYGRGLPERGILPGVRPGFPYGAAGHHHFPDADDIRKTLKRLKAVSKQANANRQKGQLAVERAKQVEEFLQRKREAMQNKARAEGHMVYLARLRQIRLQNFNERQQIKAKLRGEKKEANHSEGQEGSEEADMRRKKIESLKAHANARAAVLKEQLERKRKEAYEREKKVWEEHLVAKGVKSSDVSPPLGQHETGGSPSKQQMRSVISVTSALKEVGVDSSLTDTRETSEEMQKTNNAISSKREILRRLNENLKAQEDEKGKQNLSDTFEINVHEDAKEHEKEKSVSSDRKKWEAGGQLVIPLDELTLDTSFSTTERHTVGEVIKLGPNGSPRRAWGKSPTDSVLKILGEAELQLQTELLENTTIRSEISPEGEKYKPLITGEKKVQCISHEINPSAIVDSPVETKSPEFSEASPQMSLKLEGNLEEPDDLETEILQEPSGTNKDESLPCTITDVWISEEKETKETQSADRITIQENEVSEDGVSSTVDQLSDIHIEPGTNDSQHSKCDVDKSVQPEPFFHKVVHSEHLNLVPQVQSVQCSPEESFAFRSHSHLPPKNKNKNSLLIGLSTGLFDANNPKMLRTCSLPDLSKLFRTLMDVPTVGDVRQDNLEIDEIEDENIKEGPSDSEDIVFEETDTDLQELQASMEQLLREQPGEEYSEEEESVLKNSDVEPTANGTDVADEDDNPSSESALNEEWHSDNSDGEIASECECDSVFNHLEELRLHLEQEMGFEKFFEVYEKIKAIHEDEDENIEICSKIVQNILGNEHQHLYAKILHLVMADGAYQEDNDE
Description: Dose-response analysis of NEK1. In kind it is biochemical.

The next assay has as its system panel of 468 kinases. Description: KINOMESCAN binding analysis, panel of 468 kinases. The conditions noted are these: 10 μM. As for the experimental part: (§1) The KINOMESCAN® was performed with binding assays of Compound 33 against a panel of 468 kinases at a concentration of 10 μM.
(§2) To evaluate the kinase selectivity of compounds of the application, KINOMESCAN® binding analysis against a panel of 468 kinases at a concentration of 10 μM was conducted.

The target of assay [5] is T2, NEK1. The assay is described as follows: KINOMESCAN binding analysis. As for the experimental part: as §1, §2
The target of the next assay is CDK19 (Homo sapiens, UniProt Q9BWU1). Description: KINOMESCAN binding analysis. As for the experimental part: as §1, §2
A further assay deals with PIKFYVE (Homo sapiens, UniProt Q9Y2I7). Description: KINOMESCAN binding analysis. As for the experimental part: as §1, §2
In assay [6] the target is T1, CDK8. Description: KINOMESCAN binding analysis. As for the experimental part: as §1, §2
Target sequence in this assay (P49336 whole entry): as the sequence (P49336 whole entry) above

Sequence of PIKFYVE (Q9Y2I7 whole entry): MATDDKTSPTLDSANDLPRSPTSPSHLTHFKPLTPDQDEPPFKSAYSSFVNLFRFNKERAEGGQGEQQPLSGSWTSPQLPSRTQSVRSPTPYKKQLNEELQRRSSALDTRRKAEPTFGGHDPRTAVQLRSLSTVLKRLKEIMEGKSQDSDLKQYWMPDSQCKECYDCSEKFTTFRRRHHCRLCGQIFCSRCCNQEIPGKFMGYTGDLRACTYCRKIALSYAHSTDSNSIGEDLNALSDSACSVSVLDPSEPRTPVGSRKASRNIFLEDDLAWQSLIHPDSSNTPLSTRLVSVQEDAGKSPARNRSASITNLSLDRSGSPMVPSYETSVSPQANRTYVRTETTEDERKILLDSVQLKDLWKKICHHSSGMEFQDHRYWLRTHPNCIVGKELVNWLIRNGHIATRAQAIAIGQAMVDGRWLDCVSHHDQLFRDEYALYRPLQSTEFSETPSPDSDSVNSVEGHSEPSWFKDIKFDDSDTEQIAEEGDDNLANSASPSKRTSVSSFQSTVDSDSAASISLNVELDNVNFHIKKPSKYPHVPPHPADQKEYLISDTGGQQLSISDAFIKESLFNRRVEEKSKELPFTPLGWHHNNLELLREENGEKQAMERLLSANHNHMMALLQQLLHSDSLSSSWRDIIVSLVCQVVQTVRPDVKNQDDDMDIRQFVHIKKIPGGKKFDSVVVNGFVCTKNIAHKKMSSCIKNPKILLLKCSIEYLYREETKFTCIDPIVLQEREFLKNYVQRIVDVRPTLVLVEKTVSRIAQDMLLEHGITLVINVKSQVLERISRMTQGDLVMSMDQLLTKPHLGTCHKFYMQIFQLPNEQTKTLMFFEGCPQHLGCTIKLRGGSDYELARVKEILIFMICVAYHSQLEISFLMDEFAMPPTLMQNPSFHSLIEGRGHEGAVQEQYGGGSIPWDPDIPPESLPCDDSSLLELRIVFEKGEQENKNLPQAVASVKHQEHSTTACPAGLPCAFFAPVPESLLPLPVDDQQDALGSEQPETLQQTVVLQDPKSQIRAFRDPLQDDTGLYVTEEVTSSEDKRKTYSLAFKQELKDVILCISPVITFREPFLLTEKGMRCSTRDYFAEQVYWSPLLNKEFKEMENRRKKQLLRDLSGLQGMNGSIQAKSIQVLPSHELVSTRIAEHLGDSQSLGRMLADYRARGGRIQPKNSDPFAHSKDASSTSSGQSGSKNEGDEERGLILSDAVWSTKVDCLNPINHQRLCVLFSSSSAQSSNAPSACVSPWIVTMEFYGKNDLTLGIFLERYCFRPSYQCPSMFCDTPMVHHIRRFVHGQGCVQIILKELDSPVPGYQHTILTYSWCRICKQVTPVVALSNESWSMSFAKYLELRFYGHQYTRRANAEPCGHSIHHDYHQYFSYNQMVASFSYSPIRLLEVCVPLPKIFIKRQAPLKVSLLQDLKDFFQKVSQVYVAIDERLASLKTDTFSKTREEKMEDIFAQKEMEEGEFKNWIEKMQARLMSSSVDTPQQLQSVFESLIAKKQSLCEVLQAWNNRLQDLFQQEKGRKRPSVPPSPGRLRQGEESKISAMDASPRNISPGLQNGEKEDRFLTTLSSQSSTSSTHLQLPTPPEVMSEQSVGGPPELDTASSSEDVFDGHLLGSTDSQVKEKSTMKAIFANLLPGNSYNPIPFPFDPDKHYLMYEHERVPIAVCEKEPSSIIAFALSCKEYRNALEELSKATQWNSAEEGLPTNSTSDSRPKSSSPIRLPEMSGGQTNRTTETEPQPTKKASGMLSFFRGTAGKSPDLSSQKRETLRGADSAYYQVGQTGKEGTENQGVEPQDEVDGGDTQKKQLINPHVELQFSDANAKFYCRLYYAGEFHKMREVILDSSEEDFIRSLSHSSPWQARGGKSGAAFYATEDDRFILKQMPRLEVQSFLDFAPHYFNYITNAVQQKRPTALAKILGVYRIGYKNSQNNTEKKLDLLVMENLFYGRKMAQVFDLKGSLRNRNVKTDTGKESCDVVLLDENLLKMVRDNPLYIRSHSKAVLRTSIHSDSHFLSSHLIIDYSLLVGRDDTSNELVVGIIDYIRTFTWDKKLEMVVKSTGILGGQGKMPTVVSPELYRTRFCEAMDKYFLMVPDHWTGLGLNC
Sequence of CDK19 (Q9BWU1 whole entry): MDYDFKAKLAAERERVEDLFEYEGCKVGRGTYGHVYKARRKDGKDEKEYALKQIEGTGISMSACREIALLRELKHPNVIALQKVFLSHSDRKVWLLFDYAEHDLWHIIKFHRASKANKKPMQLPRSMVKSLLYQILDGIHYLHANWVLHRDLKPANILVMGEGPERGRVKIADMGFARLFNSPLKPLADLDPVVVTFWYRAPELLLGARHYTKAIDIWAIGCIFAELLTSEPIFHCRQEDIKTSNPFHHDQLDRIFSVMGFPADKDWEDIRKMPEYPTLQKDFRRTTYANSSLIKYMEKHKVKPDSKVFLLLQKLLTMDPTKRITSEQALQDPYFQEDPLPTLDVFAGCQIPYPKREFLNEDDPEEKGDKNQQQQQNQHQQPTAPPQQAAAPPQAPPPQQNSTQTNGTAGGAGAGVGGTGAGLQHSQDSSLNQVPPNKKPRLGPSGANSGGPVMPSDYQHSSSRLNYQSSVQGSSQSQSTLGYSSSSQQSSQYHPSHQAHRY

With `CN(C)[C@H]1CC[C@@]2(C)[C@@H](CC[C@@H]3[C@@H]2CC[C@]2(C)[C@@H](c4ccc5ccncc5c4)CC[C@@H]32)C1` [Compound 23, (3S,8R,9S,10S,13S,14S,17S)-(isoquinolin-7-yl)-N,N,10,13-tetramethylhexadecahydro-1H-cyclopenta[a]phenanthren-3-amine], on CDK8 [1], the IC50 was < 100 nM. On the same count and under the same terms, the result for `C[C@]12CC[C@H](O)CC1=CC[C@@H]1[C@@H]2CC[C@]2(C)C(c3ccc4[nH]ncc4c3)=CC[C@@H]12` [Compound 6] reads > 6000 nM; that for `CN[C@H]1CC[C@@]2(C)[C@@H](CC[C@@H]3[C@@H]2CC[C@]2(C)[C@@H](c4ccc5ccncc5c4)CC[C@@H]32)C1` [Compound 46, (3S,8R,9S,10S,13S,14S,17S)-17-(isoquinolin-7-yl)-N,10,13-trimethylhexadecahydro-1H-cyclopenta[a]phenanthren-3-amine], 701 to 2000 nM.

Consider `CN(C)[C@H]1CC[C@@]2(C)[C@@H](CC[C@@H]3[C@@H]2CC[C@]2(C)C(c4ccc5ccncc5c4)=CC[C@@H]32)C1` [Compound 22r, (3S,8R,9S,10S,13S,14S)-17-(isoquinolin-7-yl)-N,N,10,13-tetramethyl-2,3,4,5,6,7,8,9,10,11,12,13,14,15-tetradecahydro-1H-cyclopenta[a]phenanthren-3-amine], for which the IC50 on CDK8 [1] lay within 101 to 200 nM. As for `C[C@]12CC[C@H](O)CC1=CC[C@@H]1C2CC[C@]2(C)C(c3ccc4cnccc4c3)=CC[C@@H]12` (some centres unmarked) [Compound 48], on CDK8 [1], the concentration for half-maximal inhibition (IC50) was > 6000 nM.

Turning to `CN(C)[C@@H]1CC[C@@]2(C)[C@@H](CC[C@@H]3[C@@H]2CC[C@]2(C)[C@@H](c4ccc5ccncc5c4)CC[C@@H]32)C1` [Compound 25], the IC50 on CDK8 [1] is < 100 nM. As to `C[C@]12CC[C@H](O)CC1=CC[C@@H]1[C@@H]2CC[C@]2(C)C(c3ccc4c(N)n[nH]c4c3)=CC[C@@H]12` [Compound 5], the IC50 at CDK8 [1] is 701 to 2000 nM. On the same count and under the same terms, the result for `C[C@]12CC[C@H](O)CC1=CC[C@@H]1[C@@H]2CC[C@]2(C)C(c3ccc4cnncc4c3)=CC[C@@H]12` [Compound 3] reads > 6000 nM; that for `C[C@]12CC[C@H]3[C@@H](CC=C4C[C@@H](O)CC[C@@]43C)[C@@H]1CC[C@@H]2c1ccc2[nH]ncc2c1` [Compound 12], > 6000 nM; that for `C[C@]12CC[C@H](n3ccnn3)C[C@@H]1CC[C@@H]1[C@@H]2CC[C@]2(C)[C@@H](c3ccc4ccncc4c3)CC[C@@H]12` [Compound 39, 7-((3S,8R,9S,10S,13S,14S,17S)-10,13-dimethyl-3-(1H-1,2,3-triazol-1-yl)hexadecahydro-1H-cyclopenta[a]phenanthren-17-yl)isoquinoline], < 100 nM. The same measure, in the same setting: the result for `C[C@]12CC[C@H](O)CC1=CC[C@@H]1[C@@H]2CC[C@]2(C)C(c3ccc4cn[nH]c4c3)=CC[C@@H]12` [Compound 7] reads > 6000 nM; that for `C[C@]12CC[C@H]3[C@@H](CC=C4C[C@@H](O)CC[C@@]43C)[C@@H]1CC[C@@H]2c1ccc2cn[nH]c2c1` [Compound 13], > 6000 nM.

`CN(C)[C@H]1C[C@@]23CC[C@@]4(O2)C(=CC[C@]2(C)C(c5ccc6ccncc6c5)=CC[C@H]24)C=C3[C@@H](O)[C@@H]1O` [DCA, dehydrocortistatin A, reference compound] yielded a 50% inhibitory concentration (IC50) against CDK8 [2] of 17 nM. Moreover, the “inhibition of S727 phosphorylation of STAT1” value in [3] is recorded as “dose-dependent inhibition”. As to `C[C@]12CC[C@H](N3CCOCC3)C[C@@H]1CC[C@@H]1[C@@H]2CC[C@]2(C)[C@@H](c3ccc4ccncc4c3)CC[C@@H]12` [Compound 34, 4-((3S,5S,8R,10S,13S,14S,17S)-17-(isoquinolin-7-yl)-10,13-dimethylhexadecahydro-1H-cyclopenta[a]phenanthren-3-yl)morpholine], the IC50 at CDK8 [1] fell in the range of 101 to 200 nM. With `CN(C)[C@H]1CC[C@@]2(C)C(=CCC3[C@@H]4CC[C@H](c5ccc6ccncc6c5)[C@@]4(C)CC[C@@H]32)C1` (stereo in doubt) [Compound 33, (3S,8R,9S,10R,13S,14S)-17-(isoquinolin-7-yl)-N,N,10,13-tetramethyl-2,3,4,7,8,9,10,11,12,13,14,15,16,17-tetradecahydro-1H-cyclopenta[a]phenanthren-3-amine], the 50% inhibitory concentration (IC50) at NEK1 [4] is > 10 µM; on CDK8 [1], < 100 nM. In assay [3], the “inhibition of S727 phosphorylation of STAT1” value is reported as “dose-dependent inhibition”. The kinase selectivity result in the assay with panel of 468 kinases is “highly selective for CDK8 and CDK19”. For the same compound, the “number of interactions greater than 90% inhibition” value with panel of 468 kinases turned out to be 4. Besides, the inhibition at 10 µM on NEK1 [5], at CDK19, on PIKFYVE and at CDK8 [6] was > 90% throughout.

Regarding `C[C@]12CC[C@H]3[C@@H](CC=C4C[C@@H](O)CC[C@@]43C)[C@@H]1CC[C@@H]2c1ccc2cnncc2c1` [Compound 9], the IC50 on CDK8 [1] is > 6000 nM. On the same count and under the same terms, the same measure for `C[C@]12CC[C@H]3[C@@H](CC=C4C[C@@H](O)CC[C@@]43C)[C@@H]1CC[C@@H]2c1ccc2ccncc2c1` [Compound 8a, (3S,8S,9S,10R,13S,14S,17S)-17-(isoquinolin-7-yl)-10,13-dimethyl-2,3,4,7,8,9,10,11,12,13,14,15,16,17-tetradecahydro-1H-cyclopenta[a]phenanthren-3-ol]: < 100 nM.
